Measurements as given in patent US11154476B2, “Synergistic effects of alkanolamine alkylamides and other moisturizing agents” (Akzo Nobel Chemicals International, B.V., priority 2016, dated 2021).

What was measured:
[1] = Dynamic Vapor Sorption (DVS) analysis, equilibrium water absorption; format: physicochemical; conditions: DVS at 50% humidity, 25° C., single moisturizing agents / Ex. 1 and 2 products
Experimental: Dynamic Vapor Sorption (DVS) technique was used to measure the moisture intake of a specific compound at certain humidity level. DVS Intrinsic instrument manufactured by Surface Measurement Systems UK Ltd. (London, United Kingdom) was used to measure DVS. The following measurement procedure was used to determine the water vapor absorption of a specific composition.
A uniform aqueous solution of a target composition was made at 50% concentration. About 1.2 to 1.6 mg of the prepared aqueous solution was added to DVS instrument at zero tare balance. The temperature was then set at 25° C. A measurement was performed at 90% humidity to ensure that the sample absorbs the highest level of water in order to minimize the mass transfer barrier during the evaporation process. The dynamics of water absorption was determined by the weight change per minute; with water absorption equilibrium defined as the time at which the weight change per minute was less than 0.005% of the sample weight. The equilibrium weight at 0% humidity is the sample weight by itself. Thus, the percentage of equilibrium water absorption at various humidity levels was calculated.
Using the above procedure, DVS was used to evaluate water absorption for compositions comprising DGA Acetamide, other moisturizing agents, and combinations of DGA Acetamide and various additional moisturizing agents. First, DVS values were obtained at 50% humidity for the DGA acetamide products of Examples 1 and 2 above and other selected moisturizing agents.
Then, 1:1 mixtures based on weight were made of each of the DGA Acetamide products of Examples 1 and 2 above with each of the other four moisturizing agents, where the DGA acetamide product of Example 1 is DGA Acetamide:glycerol (83 wt %:17 wt %) and the DGA acetamide product of Example 2 is substantially 100% DGA acetamide. DVS measurements were taken at 50% humidity, using the same amount of total moisturizing agent. It was expected that the DVS values of the mixtures with the other four moisturizing agents would have been the average of the DVS values of each of the moisturizing agents individually, based on the weight percent of each in the mixture.

[2] = test system: inner forearm of each panelist; experiment: Corneometer analysis of test gel formulations, scaled moisturization performance (SMP); format: in vivo; conditions: average of 8 panelists, water = 0, glycerol = 1, 22° C., 50% RH; for Corneometer SMP results, 6 hours: 6 hours after single application of gel with 5 wt % active; for Corneometer SMP results, 30 hours: 30 hours after single application of gel with 5 wt % active
Experimental: To prepare a gel formulation, deionized water was added to a 4 oz. tall jar that was set up for mixing using an overhead mixer and a jiffy blade. The water was then mixed at a speed that created a good vortex that nearly reached the bottom of the jar (e.g., about 700 rpm). To this, Carbopol® 940 (cross-linked polyacrylate polymer available from Lubrizol, Wickliffe, Ohio) was slowly added and mixed for at least 15 minutes until homogeneous. Triethanolamine (TEA) was then added and the mixing speed was adjusted overhead to about 200 rpm and continued mixing for about 10 minutes (e.g., product viscosity increased). To this mixture was added 5 wt % of the moisturizing agent, as either a single agent or a combination of agents, followed by 0.5 wt % Glydant™ Plus™ (a preservative available from Lonza, Basel, Switzerland) and the remaining, balance water. Mixing was continued at 200 rpm for about 15-20 minutes. The mixture was then removed from the mixer and the final pH was measured. Prior to analysis, samples were centrifuged at 2000 rpm for 15 minutes to remove suspended air pockets from the gel formulation.
About 30 μl of each test gel formulation was applied once (e.g., in a single application with no additional re-applications) in a circle with diameter of about 3 cm on the inner forearm of each panelist. Moisture levels were measured using a Corneometer® CM 825 (available from CK Industries) prior to application of the test gel formulations, and at 6 hour and 30 hour intervals after application, at a temperature of 22° C. and relative humidity of 50%.
To facilitate more meaningful comparisons of the corneometer data for the different test formulations, the following adjustment were made to minimize the variations in the response of humectant treatment: the moisturization performance for glycerol was defined to be 1, and that for water to be zero, then the scaled moisturization performance (SMP) for a specific moisturizing active was defined as: […]
RActive, Rwater, and Rglycerol were the actual corneometer readings of the test gel formulations comprising the active moisturizing agent(s), water, and glycerol, respectively, for an individual panelist at a specific time after the initial treatment. The overall SMP of each tested activewas then the average of SMP over 8 panelists. […] The SMP values illustrated in FIG. 4 provide narrower standard deviations over 8 panelists when compared to actual corneometer readings in FIG. 3.
Using this procedure, corneometer measurements were taken at 6 hours and 30 hours for hydroxyethyl urea, glycerol, the DGA acetamide:glycerol (83:17 wt %) of Example 1, the DGA Acetamide of Example 2, a 1:1 mixture of the DGA Acetamide of Example 2 with hydroxyethyl urea, and a 1:1 mixture of the DGA Acetmaide of Example 2 with glycerol. Measurements were taken at six hours and 30 hours on eight subjects, and calculated as scaled moisturization performance values.

% water absorbed (based on weight of moisturizing agent) [1] | SMILES | Corneometer SMP results, 6 hours [2] | Corneometer SMP results, 30 hours [2]
19.7% | NC(=O)NCCO [A, Hydroxyethyl urea] | 0.91 | 1.03
26.9% | CC(=O)NCCOCCO [C, N-acetyl diglycolamine] | 0.80 | 0.92
27.7% | OCC(O)CO [D, Glycerol] | 1.0 | 1.0

More lines, now with the values behind:

SMILES | % water absorbed (based on weight of moisturizing agent) [1] | Corneometer SMP results, 6 hours [2] | Corneometer SMP results, 30 hours [2]
O=C1CCC(C(=O)[O-])N1.[Na+] (centres unmarked) [E, sodium pyrrolidone carboxylate] | 28.7% | – | –
CC(O)C(=O)[O-].[Na+] (centres unmarked) [F, Sodium lactate] | 35.1% | – | –
